According to patent publication US10703764B2, “Benzopiperazine compositions as BET bromodomain inhibitors” (FORMA Therapeutics, Inc., priority 2013, dated 2020):

What was measured:
BRD4 BD2 = target: T1, BRD4 BD2 (Homo sapiens, UniProt O60885); assay: AlphaScreen binding assay, BRD4 Bromodomain 2
T1 construct: made in house
Procedure, shortened: (§1)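 Compound dilution series were mixed with His-tagged BRD4 bromodomain and biotinylated tetra-acetylated H4 (1-21) peptide at pH 7.3 (BD1 and peptide at 50 nM, BD2 and peptide at 100 nM). Donor and acceptor beads were then added, and plates were equilibrated at least 1 h before reading. IC50 values were fitted with a four-parameter logistic model.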

BRD4 BD1 = target: T2, BRD4 BD1 (Homo sapiens, UniProt O60885); assay: AlphaScreen binding assay, BRD4 Bromodomain 1
T2 construct: made in house
Procedure, shortened: as §1

Row | SMILES | IC50 (BRD4 BD2) [nM] | IC50 (BRD4 BD1) [nM]
1 | COC(=O)N1c2ccc(-c3cnn(CCN(C)C)c3)cc2N(C(=O)OC(C)C)C[C@@H]1C [Example I-645] | > 500 | 1000 to 10000
2 | CC(C)OC(=O)N1C[C@H](C)N(C(=O)C2CC2)c2ccc(-c3cnn(CCN(C)C)c3)cc21 [Example I-646] | > 500 | 1000 to 10000
3 | CC(=O)N1c2ccc(-c3cnn(C(C)(C)C(N)=O)c3)cc2N(C(=O)C2CC2)C[C@@H]1C [Example I-648] | 50 to 500 | 1000 to 10000
4 | CC(=O)N1c2ccc(-c3cnn(CC(N)=O)c3)cc2N(C(=O)C2CC2)C[C@@H]1C [Example I-655] | 50 to 500 | 1000 to 10000
5 | CC(=O)N1c2ccc(-c3cnn(CC(=O)N(C)C4CC4)c3)cc2N(C(=O)C2CC2)C[C@@H]1C [Example I-658] | 50 to 500 | 1000 to 10000
6 | CC(=O)N1c2ccc(-c3cnn(CCN4CCCC4=O)c3)cc2N(C(=O)C2CC2)C[C@@H]1C [Example I-660] | 50 to 500 | 1000 to 10000
7 | CC(=O)N1c2ccc(-c3cnn(CC(=O)N4CCCCC4)c3)cc2N(C(=O)C2CC2)C[C@@H]1C [Example I-661] | 50 to 500 | 1000 to 10000
8 | CC(=O)N1c2ccc(-c3cnn(CC(=O)N4CCC4)c3)cc2N(C(=O)C2CC2)C[C@@H]1C [Example I-672] | 50 to 500 | 1000 to 10000
9 | CC(=O)N1c2ccc(-c3cnn(CCC(N)=O)c3)cc2N(C(=O)C2CC2)C[C@@H]1C [Example I-674] | 50 to 500 | 1000 to 10000
10 | CC(=O)N1c2ccc(-c3cnn(CC#N)c3)cc2N(C(=O)C2CC2)C[C@@H]1C [Example I-675] | 50 to 500 | 1000 to 10000
11 | CC(=O)N1c2ccc(-c3cnn(CC(=O)O)c3)cc2N(C(=O)C2CC2)C[C@@H]1C [Example I-676] | > 500 | 1000 to 10000
12 | CCNC(=O)Cn1cc(-c2ccc3c(c2)N(C(=O)C2CC2)CC(C)N3C(C)=O)cn1 (centres unmarked) [Example I-681] | 50 to 500 | 1000 to 10000
13 | CC(=O)N1c2ccc(-c3cnn(CC(=O)N(C)C)c3)cc2N(C(=O)C2CC2)C[C@@H]1C [Example I-683] | 50 to 500 | 1000 to 10000
14 | CC(=O)N1c2ccc(-c3cnn(CC4CCS(=O)(=O)CC4)c3)cc2N(C(=O)C2CC2)C[C@@H]1C [Example I-684] | 50 to 500 | 100 to 1000
15 | COC(=O)N1c2ccc(-c3cnn(C[C@@H]4CCNC4)c3)cc2N(C(=O)OC(C)C)C[C@@H]1C [Example I-691] | 50 to 500 | 1000 to 10000
16 | CC(=O)N1c2ccccc2N(C(=O)CCN(C)C)C[C@@H]1C [Example I-693] | > 500 | > 10000
17 | CC(=O)N1c2ccccc2N(C(=O)c2ccccc2)C[C@@H]1C [Example I-694] | > 500 | > 10000
18 | CC(=O)N1c2ccccc2N(C(=O)Cc2ccccc2)C[C@@H]1C [Example I-695] | > 500 | > 10000
19 | CC(=O)N1c2ccccc2N(C(=O)CCc2ccccc2)C[C@@H]1C [Example I-696] | > 500 | > 10000
20 | CC(=O)N1c2ccccc2N(C(=O)C2CCCCC2)C[C@@H]1C [Example I-697] | > 500 | > 10000
21 | COc1ccc(CC(=O)N2C[C@H](C)N(C(C)=O)c3ccccc32)cc1 [Example I-698] | > 500 | > 10000
22 | COc1cccc(CC(=O)N2C[C@H](C)N(C(C)=O)c3ccccc32)c1 [Example I-699] | > 500 | > 10000
23 | COCCC(=O)N1C[C@H](C)N(C(C)=O)c2ccccc21 [Example I-700] | > 500 | > 10000

Row | SMILES | IC50 (BRD4 BD2) [nM] | IC50 (BRD4 BD1) [nM]
24 | CC(=O)N1c2ccccc2N(C(=O)c2ccc3c(c2)OCO3)C[C@@H]1C [Example I-701] | > 500 | > 10000
25 | COc1ccccc1C(=O)N1C[C@H](C)N(C(C)=O)c2ccccc21 [Example I-702] | > 500 | > 10000
26 | CC(=O)N1c2ccccc2N(C(=O)c2ccc(-c3ccccc3)cc2)C[C@@H]1C [Example I-703] | > 500 | > 10000
27 | CC(=O)N1c2ccccc2N(C(=O)c2ccncc2)C[C@@H]1C [Example I-704] | > 500 | > 10000
28 | CC(=O)N1c2ccccc2N(C(=O)c2csc(C)n2)C[C@@H]1C [Example I-705] | > 500 | > 10000
29 | CC(=O)N1c2ccccc2N(C(=O)CC2CCOCC2)C[C@@H]1C [Example I-706] | > 500 | > 10000
30 | CC(=O)N1c2ccccc2N(C(=O)Cc2ccc(-c3ccccc3)cc2)C[C@@H]1C [Example I-707] | > 500 | > 10000
31 | CC(=O)N1c2ccccc2N(C(=O)CC(C)C)C[C@@H]1C [Example I-708] | > 500 | > 10000
32 | CC(=O)N1c2ccccc2N(C(=O)Cc2ccc3c(c2)OCO3)C[C@@H]1C [Example I-709] | > 500 | > 10000
33 | CC(=O)N1c2ccccc2N(C(=O)Cc2cccc(C(F)(F)F)c2)C[C@@H]1C [Example I-710] | > 500 | > 10000
34 | COc1ccccc1CC(=O)N1C[C@H](C)N(C(C)=O)c2ccccc21 [Example I-711] | > 500 | > 10000
35 | CC(=O)N1c2ccccc2N(C(=O)COc2ccccc2)C[C@@H]1C [Example I-712] | > 500 | > 10000
36 | CC(=O)N1c2ccccc2N(C(=O)CC2CCCC2)C[C@@H]1C [Example I-713] | > 500 | > 10000
37 | CC(=O)N1c2ccccc2N(C(=O)C2CCCC2)C[C@@H]1C [Example I-714] | > 500 | > 10000
38 | CC(=O)N1c2ccccc2N(C(=O)[C@H](C)c2ccccc2)C[C@@H]1C [Example I-715] | > 500 | > 10000
39 | CC(=O)N1c2ccccc2N(C(=O)c2ccc3ccccc3c2)C[C@@H]1C [Example I-716] | > 500 | > 10000
40 | CC(=O)N1c2ccccc2N(C(=O)c2ccc3c(c2)CCO3)C[C@@H]1C [Example I-717] | > 500 | > 10000
41 | CC(=O)N1c2ccccc2N(C(=O)c2cccc(Cl)c2)C[C@@H]1C [Example I-718] | > 500 | > 10000
42 | CC(=O)N1c2ccccc2N(C(=O)c2cccc3ccccc23)C[C@@H]1C [Example I-719] | > 500 | > 10000
43 | CC(=O)N1c2ccccc2N(C(=O)c2ccco2)C[C@@H]1C [Example I-720] | 50 to 500 | > 10000
44 | CC(=O)N1c2ccccc2N(C(=O)c2cnc(C)cn2)C[C@@H]1C [Example I-721] | > 500 | > 10000
45 | CC(=O)N1c2ccccc2N(C(=O)c2cc(C)on2)C[C@@H]1C [Example I-722] | > 500 | > 10000
46 | CC(=O)N1c2ccccc2N(C(=O)c2ccc(-n3cccn3)cc2)C[C@@H]1C [Example I-723] | > 500 | > 10000

Row | SMILES | IC50 (BRD4 BD2) [nM] | IC50 (BRD4 BD1) [nM]
47 | CC(=O)N1c2ccccc2N(C(=O)c2ccc3ncsc3c2)C[C@@H]1C [Example I-724] | > 500 | > 10000
48 | CC(=O)N1c2ccccc2N(C(=O)c2csc(Nc3cccnc3)n2)C[C@@H]1C [Example I-725] | > 500 | > 10000
49 | CC(=O)N1c2ccccc2N(C(=O)c2cnc(-c3cccnc3)s2)C[C@@H]1C [Example I-726] | > 500 | > 10000
50 | CC(=O)N1c2ccccc2N(C(=O)CSc2ccccc2)C[C@@H]1C [Example I-727] | > 500 | > 10000
51 | CC(=O)N1c2ccccc2N(C(=O)c2ccc(C(C)C)cn2)C[C@@H]1C [Example I-728] | > 500 | > 10000
52 | CC(=O)N1c2ccccc2N(C(=O)c2ccc(C(C)C)nc2)C[C@@H]1C [Example I-729] | > 500 | > 10000
53 | CC(=O)N1c2ccccc2N(C(=O)c2cc3ccccc3[nH]2)CC1C (centres unmarked) [Example I-730] | > 500 | > 10000
54 | CC(=O)N1c2ccccc2N(C(=O)Cc2cccs2)C[C@@H]1C [Example I-731] | > 500 | > 10000
55 | CC(=O)N1c2ccccc2N(C(=O)COc2ccc(Cl)cc2)C[C@@H]1C [Example I-732] | > 500 | > 10000
56 | COc1ccc(OCC(=O)N2C[C@H](C)N(C(C)=O)c3ccccc32)cc1 [Example I-733] | > 500 | > 10000
57 | CC(=O)N1c2ccccc2N(C(=O)COc2ccc3ccccc3c2)C[C@@H]1C [Example I-734] | > 500 | > 10000
58 | CC(=O)N1c2ccccc2N(C(=O)COc2ccc(F)cc2)C[C@@H]1C [Example I-735] | > 500 | > 10000
59 | CC(=O)N1c2ccccc2N(C(=O)COc2cccc3ccccc23)C[C@@H]1C [Example I-736] | > 500 | > 10000
60 | CC(=O)N1c2ccccc2N(C(=O)[C@H]2COc3ccccc3O2)C[C@@H]1C [Example I-737] | > 500 | > 10000
61 | COCC(=O)N1C[C@H](C)N(C(C)=O)c2ccccc21 [Example I-738] | > 500 | > 10000
62 | CC(=O)N1c2ccccc2N(C(=O)Cc2csc3ccc(Cl)cc23)C[C@@H]1C [Example I-739] | > 500 | > 10000
63 | CO[C@@H](C(=O)N1C[C@H](C)N(C(C)=O)c2ccccc21)c1ccccc1 [Example I-740] | > 500 | > 10000
64 | CO[C@H](C(=O)N1C[C@H](C)N(C(C)=O)c2ccccc21)c1ccccc1 [Example I-741] | > 500 | > 10000
65 | CC(=O)N1c2ccccc2N(C(=O)c2ccc(Oc3ccccc3)cc2)C[C@@H]1C [Example I-742] | > 500 | > 10000
66 | CC(=O)N1c2ccccc2N(C(=O)c2ccc(Cl)cc2)C[C@@H]1C [Example I-743] | > 500 | > 10000
67 | CC(=O)N1c2ccccc2N(C(=O)c2ccccc2Oc2ccccc2)C[C@@H]1C [Example I-744] | > 500 | > 10000
